Results published in US20090181098A1, “Hmg-Co-a Reductase Inhibitor Enhancement of Bone and Cartilage” (OsteoScreen IP, LLC, priority 2006, published 2009).
Where two headings read alike, the source gives them in different places.

Key:
[1] = Plasma lovastatin levels after a single oral or dermal dose, estimated by HMG-CoA reductase inhibition assay; format: in vivo, rat
Experimental: The area under the plasma concentration-time curve (AUC0-24 hr) of lovastatin equivalence was calculated using the trapezoidal rule for both oral and dermal application of lovastatin. For oral administration, a suspension of lovastatin was prepared in 0.5% methylcellulose and administered by gavage. For dermal administration, lovastatin was mixed initially with 100% DMSO and in subsequent experiments, with hydrophilic petrolatum and applied to the back of the animals after shaving (area of application=6.45 cm^2). In later experiments, the dermal formulation was modified and a aqueous alkanolic gel with a carbomer-based formulation containing water, ethanol, Carbomer 940, cholesterol, BHA and TEA was used.

intact rats = test: Effects of transdermal lovastatin on bone in intact rats (BMD, histomorphometry, μCT); format: in vivo, rat; details: for Increase in bone volume, proximal tibial metaphysis: dermal, hydrophilic petrolatum, 4 weeks after treatment
Experimental: Following sacrifice, both femurs and tibiae were removed, cleaned of soft tissue, fixed in 10% formalin for 48 hours, and then stored in 70% ETOH and prepared for histology. Histomorphometric analysis was performed using a semiautomated Osteomeasure System (Osteometrics, Inc., Atlanta, Ga.) and digitizing pad and by following standard histomorphometric techniques. Bone volume, trabecular number, thickness and separation, cell number and dynamic parameters were determined as described previously by Parfitt et al. [Parfitt A M (1988) Bone histomorphometry: standardization of nomenclature, symbols and units. Summary of proposed system. J Bone Miner Res 4:1-5.]. Bone formation rates (BFR) and mineral apposition rates (MAR) were measured in plastic-embedded sections following demeclocycline and calcein injections (15 and 20 mg/kg/body weight respectively) given intraperitoneally at 10 and 4 days before sacrifice. Values for MAR were corrected for obliquity of the plane of section in cancellous bone. Rats were evaluated with a mouse densitometer, Piximus (GE Medical Systems); bone mineral density (BMD), calculated by dividing bone mineral content (g) by the projected bone area (cm^2), was assessed for the proximal third of the tibia at time 0 and at 5 weeks. Micro-computed tomography (μ-CT) analysis of the rat distal femur was kindly performed by Phil Salmon (Skyscan, Belgium). Bones were scanned using the Skyscan Model 1072 employing an x-ray tube voltage of 100 kV, and magnified to attain a pixel size of 10.13 μm. Data are expressed as the mean standard error (SEM). Statistical differences between groups were evaluated with one-way analysis of variance (ANOVA). […] P<0.05 were considered significant.

rat femur = test: Biomechanical testing of intact femurs (three point bending); format: in vivo
Experimental: Three month old rats were dosed with vehicle or transdermal lovastatin, 1 mg/kg/day for 5 days. Four weeks after dosing, rats were euthanized and femurs removed and stored frozen. Samples were thawed to room temperature on the day of testing, and remaining soft tissue was removed. To obtain mechanical properties, the femurs were subjected to three point bending with an EnduraTEC mechanical testing system (Elf 3300, Bose Corporation, Minnetonka, Minn.). Each rat femur was horizontally positioned on the support rollers (which were 12 mm apart) such that the vertical, rounded indenter loaded the femur with the medial side in front and the anterior side down (i.e., bending occurred about the medial-lateral axis). The force-displacement curve was recorded as the indenter traveled at rate of 3 mm/min into femur midshaft. Structural properties were obtained directly from the load deformation curves.

femur fracture model [2] = test: Femur fracture model, systemically delivered lovastatin (radiographs, biomechanics); format: in vivo, rat
[3] = Plasma lovastatin by mass spectroscopy, fracture Experiment 2; format: in vivo; details: rat, 3 hrs after the last dose, read-out: Plasma lovastatin level
Experimental: Plasma was taken from the rats 3 hrs after the last dose and the lovastatin was measured by mass spectroscopy. […] Effective plasma levels from transdermal administration is on the order of 2-3 ng/ml.

femur fracture model [4] = system: femur fracture model
Text: In accordance with the study, the clinical focus involves creating uniform and reproducible fracture defects utilizing a pinned closed transverse rat femoral model chosen because it has been well defined and fully characterized by mechanical and histologic methods. Advantages of this model include reproducibility, defect uniformity, and a rapid 5 weeks to clinical union healing phase. The properties of the bioactive coating are investigated in preliminary studies in vitro and in vivo using the explanted calvarial culture and the local calvarial injection model including drug-release kinetics, degradation and stability. The aims of the study are: (1) to evaluate the effect of controlled-released locally administered lovastatin on callus formation, progression and fracture healing using X-ray analysis of fracture healing. At the end of the experiment, the fractured limb will be excised and X-rayed after removal of stabilizing pins. These X-rays will be assessed for evidence of healing of the fracture. They will be scored by 3 independent observers for healing of the fracture; (2) to evaluate the effect of controlled released lovastatin on biomechanical parameters by three-point bending and micro computer tomography (uCT); and (3) to evaluate by uCT bone microarchitecture at callus site and bone healing. […]

[5] = poly(DL-lactide) nanoparticles
Experimental: The test material is lovastatin in nanoparticles prepared as described above. […] The test articles are nanoparticles with and without lovastatin. […] The lovastatin levels are determined by HPLC and the release curved is followed throughout the experiment.

[6] = transdermal 1 and 5 mg/kg/day for 5 days
[7] = transdermal 1 mg/kg/day for 5 days, femurs four weeks after dosing

CC[C@H](C)C(=O)O[C@H]1C[C@@H](C)C=C2C=C[C@H](C)[C@H](CC[C@@H]3C[C@@H](O)CC(=O)O3)[C@H]21 [lovastatin]
Plasma levels, aqueous alkanolic gel compared with hydrophilic petrolatum ([1]; single dermal dose): higher plasma levels
Time to peak plasma levels ([1]; single dermal dose in aqueous alkanolic gel): within the first hour
AUC0-24 h, aqueous alkanolic gel relative to petrolatum formulation ([1]; single dermal dose, both doses tested (6.25 and 25 mg/kg)): more than double
Plasma concentrations, dermal compared with oral ([1]; single dose 10 or 50 mg/kg, dermal in 100% DMSO vs gavage in 0.5% methylcellulose, 1, 3, 6, 24 h): greater, less variable and more prolonged
Bone formation rates greater than those of control rats (intact rats; after 30 days, transdermal 5 days): more than 150%
Increase in bone formation rates (intact rats; dermal 5 mg/kg/day): 166%
Increase in bone volume, proximal tibial metaphysis (intact rats; 1 mg/kg/day for 5 days only): 17%
Increase in bone volume, proximal tibial metaphysis (intact rats; 5 mg/kg/day for 5 days only): 33%
Cancellous bone volume in distal femoral metaphyses by μCT vs controls (intact rats; [6]): higher cancellous bone volume
Trabecular thickness, number and spacing by μCT (intact rats; [6]): increase in trabecular thickness and number, and reduced trabecular spacing
Increase in BMD over vehicle-treated controls (intact rats; weekly dermal administration, proximal tibiae, Piximus, end of five weeks): 8%
Increase in bending strength of femurs vs control (rat femur; dermal 1 mg/kg/day for 5 days): 19%
Bending strength (rat femur; [7]): 165.2 ± 3 MPa
Maximum force (rat femur; [7]): 141.7 ± 3.4 N
Modulus of elasticity (rat femur; [7]): 6379.9 ± 455.1 MPa
Stiffness (rat femur; [7]): 561.3 ± 29.5 N/mm
Maximum force to break the bones, 2.5 mg/kg vs 1 mg/kg/day (femur fracture model [2]; Experiment 1, 5 day transdermal dose of 2.5 mg/kg, 6 weeks): lower maximum force than the 1 mg/kg/day dose
Radiological evaluation of fracture repair (femur fracture model [2]; Experiment 1, oral 10 and 25 mg/kg, six weeks): no difference between the treated and the controls
Radiographic score at 2 weeks (femur fracture model [2]; Experiment 1, oral 10 and 25 mg/kg/day): no difference from vehicle-treated controls
Force required to break the bone (femur fracture model [2]; Experiment 1, oral 10 and 25 mg/kg/day, 6 weeks): no effect
Radiographic score at 2 weeks (femur fracture model [2]; Experiment 1, transdermal 1 and 2.5 mg/kg/day): striking effect at both doses
Force required to break the bone, greater than vehicle treated controls (femur fracture model [2]; Experiment 1, transdermal, 6 weeks): 42%
Radiological evaluation of fracture repair (femur fracture model [2]; Experiment 1, transdermal, week 6): complete healing by week 6
Force required to break the bone, greater than vehicle-treated controls (femur fracture model [2]; Experiment 2, TD 0.1 mg/kg/day, 6 weeks): 42%
Maximum force to rebreak the bones (femur fracture model [2]; Experiment 2, TD doses higher than 0.1 mg/kg/day): reduced maximum force
Force required to break the bone (femur fracture model [2]; Experiment 2, oral 5 mg/kg/day, 6 weeks): no effect
Stiffness (femur fracture model [2]; Experiment 2, oral 5 mg/kg/day, 6 weeks after fracture): no effect
Most effective transdermal dose (femur fracture model [2]; for 5 days): 0.1 mg/kg/day
Stiffness (femur fracture model [2]; previous experiment (Experiment 1), oral, higher doses): increase in stiffness
Fracture healing (radiographic examination and biomechanical loading) (femur fracture model [2]; transdermal): accelerates fracture healing
Strength and stiffness of fractured bones (femur fracture model [2]; transdermal, even at 0.1 mg/kg/day for 5 days only): increase in both strength and stiffness
concentration at 3 h ([3]; oral 5 mg/kg/day): 10 ng/mL
concentration at 3 h ([3]; topical, transdermal 0.1 and 1 mg/kg/day): 2 to 3 ng/mL
Lowest lovastatin amount tested giving a significant increase in radiographic score (femur fracture model [4]; released from nanobeads at fracture site): 0.2 µg/day
Lovastatin release giving maximum radiographic score (femur fracture model [4]; single injection of nanobeads at fracture site, 2 weeks): 1.5 µg/day
Release rate of lovastatin from nanoparticles [5]: about 2 %/day
